# Patent US11096930B2, “Substituted imidazopyridine compounds as inhibitors of indoleamine 2,3-dioxygenase and/or tryptophan-2,3-dioxygenase” (IOMet Pharma Ltd., priority 2016, dated 2021)
# How the values were obtained:
# IDO [1] = molecular target: T1, IDO (Homo sapiens (Human), UniProt P14902); assay: hIDO biochemical coupled assay; conditions: 45 μM L-tryptophan
# Protocol: (§1) Exemplary compounds disclosed herein were prepared, and tested to determine their effect as IDO and/or TDO inhibitors. Two different assays were employed: 1. a cell-based assay for detecting the effect of test compounds on kynurenine production in two different cancer cell types. This assay utilized cancer cells which expressed either TDO or IDO and as such was used as a means of testing compound activity at these two enzymes in a cell-based context. 2. a TDO and IDO biochemical coupled assay which utilized recombinantly produced and purified TDO and IDO enzymes in combination with the enzyme formamidase. This coupled enzyme system allowed conversion of N-formylkynurenine produced by TDO or IDO activity to kynurenine which was then quantified by fluorescence following addition of Erhlich's Reagent. The protocols for these are set out below.
# (§2) TDO and IDO Biochemical Coupled Assay
# (§3) Recombinant human IDO or TDO was incubated in 50 mM KPO4 (pH 7.0), 0.5 mM EGTA, 0.5 mM EDTA, 0.05% Triton™ X100, 20 mM ascorbate, 10 μM methylene blue, 500 U/ml catalase, 50 μg/ml KynB (kynurenine formamidase). […] After incubation for 17 minutes at room temperature the reactions were stopped by the addition of Erhlich's reagent and incubated at room temperature for 5 minutes before the fluorescence was read.
# IDO [2] = molecular target: T1, IDO; assay: SKOV3 (IDO) cell based assay for detection of kynurenine; conditions: SKOV3 cells, IDO induced by IFN-γ, 48 hours, read-out: pIC50 SKOV3 (IDO) cell based assay (converted)
# Protocol: as §1
# (§4) A172 and SKOV3 Cell Based Assays for Detection of Kynurenine Produced by TDO and/or IDO
# (§5) A172 (human glioblastoma) and SKOV3 (human ovarian adenocarcinoma) cells were seeded in a 96 well plate at 30,000 or 40,000 cells per well respectively in phenol red-free RPMI supplemented with 10% FCS, 2 mM L-glutamine and 500 μM L-tryptophan. IDO expression was induced in the SKOV3 cells by the addition of 500 ng/ml IFN-γ. Cells were incubated at 37° C. with or without the addition of test compound. After 48 hours, the cells were removed by centrifugation and Erhlich's reagent was added to the supernatant.
# TDO [3] = molecular target: T2, TDO (Homo sapiens (Human), UniProt P48775); assay: hTDO biochemical coupled assay; conditions: 330 μM L-tryptophan
# T2 sequence (P48775 whole entry): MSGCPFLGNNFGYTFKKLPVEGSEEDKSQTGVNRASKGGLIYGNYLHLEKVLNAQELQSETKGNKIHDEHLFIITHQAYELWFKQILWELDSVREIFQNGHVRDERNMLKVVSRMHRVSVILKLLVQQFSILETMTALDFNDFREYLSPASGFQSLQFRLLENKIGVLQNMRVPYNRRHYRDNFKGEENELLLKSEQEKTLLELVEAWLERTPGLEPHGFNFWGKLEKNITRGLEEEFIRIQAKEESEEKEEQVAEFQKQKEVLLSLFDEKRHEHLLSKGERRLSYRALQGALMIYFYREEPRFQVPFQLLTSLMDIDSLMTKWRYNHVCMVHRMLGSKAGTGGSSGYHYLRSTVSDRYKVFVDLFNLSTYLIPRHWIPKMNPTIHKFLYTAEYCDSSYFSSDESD
# Protocol: as §1, §2, §3
# TDO [4] = molecular target: T2, TDO; assay: A172 (TDO) cell based assay for detection of kynurenine; conditions: A172 cells, 48 hours, read-out: pIC50 A172 (TDO) cell based assay (converted)
# Protocol: as §1, §4, §5
# T1 sequence (P14902 whole entry): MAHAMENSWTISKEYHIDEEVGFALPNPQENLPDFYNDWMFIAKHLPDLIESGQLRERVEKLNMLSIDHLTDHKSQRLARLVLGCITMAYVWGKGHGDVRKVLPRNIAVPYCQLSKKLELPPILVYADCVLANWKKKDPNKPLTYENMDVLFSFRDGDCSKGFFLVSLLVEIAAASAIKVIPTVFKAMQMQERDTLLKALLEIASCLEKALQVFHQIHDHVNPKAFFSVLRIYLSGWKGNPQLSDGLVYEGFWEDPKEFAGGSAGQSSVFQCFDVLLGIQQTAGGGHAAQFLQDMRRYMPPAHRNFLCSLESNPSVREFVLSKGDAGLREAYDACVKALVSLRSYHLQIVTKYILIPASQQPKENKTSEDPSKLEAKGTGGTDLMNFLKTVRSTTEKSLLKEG
pIC50 hIDO biochemical coupled assay (IDO [1]),IC50 (IDO [2]) [µM],pIC50 hTDO biochemical coupled assay (TDO [3]),IC50 (TDO [4]) [µM],SMILES
6.53,1.26,5.77,> 10,"O=C1CC2(CCN(c3cc(C(F)(F)F)cc4cncn34)CC2)C(=O)N1 [Example 13, 8-(7-(trifluoromethyl)imidazo[1,5-a]pyridin-5-yl)-2,8-diazaspiro[4.5]decane-1,3-dione]"
7.19,0.562,6.29,> 10,"O=C1NC(=O)C2(CCN(c3cc(Br)cc4cncn34)CC2)N1 [Example 2, 8-(7-Bromoimidazo[1,5-a]pyridin-5-yl)-1,3,8-triazaspiro[4.5]decane-2,4-dione]"
–,0.2,–,7.94,"CC1(C)CN(c2cc(Cl)cc3cncn23)CCC12NC(=O)NC2=O (stereo not shown) [Example 8, 8-(7-Chloroimidazo[1,5-a]pyridin-5-yl)-6,6-dimethyl-1,3,8-triazaspiro[4.5]decane-2,4-dione]"
5.92,3.63,5.4,10,"O=C1NC2(CCN(c3cc(C(F)(F)F)cc4cncn34)CC2)C(=O)N1CC1CCOCC1 [Example 7, 3-((Tetrahydro-2H-pyran-4-yl)methyl)-8-(7-(trifluoromethyl)imidazo[1,5-a]pyridin-5-yl)-1,3,8-triazaspiro[4.5]decane-2,4-dione]"
6.2,7.76,5.57,> 10,"CN1C(=O)NC2(CCN(c3cc(C(F)(F)F)cc4cncn34)CC2(C)C)C1=O (stereo not shown) [Example 10, 3,6,6-Trimethyl-8-(7-(trifluoromethyl)imidazo[1,5-a]pyridin-5-yl)-1,3,8-triazaspiro[4.5]decane-2,4-dione]"
5.99,4.79,5.84,> 10,"O=C1NC(=O)C2(CCN(c3cc(C(F)(F)F)cn4cncc34)CC2)N1 [Example 4, 8-(6-(Trifluoromethyl)imidazo[1,5-a]pyridin-8-yl)-1,3,8-triazaspiro[4.5]decane-2,4-dione]"
6.58,1.74,5.78,> 10,"O=C1NC2(CCN(c3cc(C(F)(F)F)cc4cncn34)CC2)C(=O)N1c1ccccc1 [Example 9, 3-Phenyl-8-(7-(trifluoromethyl)imidazo[1,5-a]pyridin-5-yl)-1,3,8-triazaspiro[4.5]decane-2,4-dione]"
6.55,1.41,5.85,> 10,"O=C1NC(=O)C2(CCN(c3cc(Cl)cc4cncn34)CC2)N1 [Example 3, 8-(7-Chloroimidazo[1,5-a]pyridin-5-yl)-1,3,8-triazaspiro[4.5]decane-2,4-dione]"
7.06,0.135,5.92,7.94,"CC1(C)CN(c2cc(Br)cc3cncn23)CCC12NC(=O)NC2=O (stereo not shown) [Example 16, 8-(7-Bromoimidazo[1,5-a]pyridin-5-yl)-6,6-dimethyl-1,3,8-triazaspiro[4.5]decane-2,4-dione]"
6.99,3.72,6.33,2.09,"CC1(C)CN(c2cc(Cl)cc3cncn23)CCC12NC(=O)NC2=O (stereo not shown) [Example 11, 8-(7-Chloroimidazo[1,5-a]pyridin-5-yl)-6,6-dimethyl-1,3,8-triazaspiro[4.5]decane-2,4-dione]"
5.74,1.17,6.1,0.661,"CC1(C)CN(c2cc(C(F)(F)F)cn3cncc23)CCC12NC(=O)NC2=O (stereo not shown) [Example 12, 6,6-Dimethyl-8-(6-(trifluoromethyl)imidazo[1,5-a]pyridin-8-yl)-1,3,8-triazaspiro[4.5]decane-2,4-dione]"
5.66,5.62,4.42,> 10,"CC1(C)CN(c2cc(C(F)(F)F)cc3cncn23)CCC12NC(=O)N(c1ccccc1)C2=O (stereo not shown) [Example 15, 6,6-Dimethyl-3-phenyl-8-(7-(trifluoromethyl)imidazo[1,5-a]pyridin-5-yl)-1,3,8-triazaspiro[4.5]decane-2,4-dione]"
5.89,6.17,5.74,> 10,"CN1C(=O)NC2(CCN(c3cc(C(F)(F)F)cc4cncn34)CC2)C1=O [Example 6, 3-Methyl-8-(7-(trifluoromethyl)imidazo[1,5-a]pyridin-5-yl)-1,3,8-triazaspiro[4.5]decane-2,4-dione]"
5.92,4.68,4.78,> 10,"CC1(C)CN(c2cc(C(F)(F)F)cc3cncn23)CCC12NC(=O)N(CC1CCOCC1)C2=O (stereo not shown) [Example 14, 6,6-dimethyl-3-((tetrahydro-2H-pyran-4-yl)methyl)-8-(7-(trifluoromethyl)imidazo[1,5-a]pyridin-5-yl)-1,3,8-triazaspiro[4.5]decane-2,4-dione]"
7.53,0.617,5.6,> 10,"O=C1NC(=O)C2(CCN(c3cc(C(F)(F)F)cc4cncn34)CC2)N1 [Example 1, 8-(7-(Trifluoromethyl)imidazo[1,5-a]pyridin-5-yl)-1,3,8-triazaspiro[4.5]decane-2,4-dione]"
